The NIST ThermoML archive (doi:10.1016/j.jct.2008.07.010)
Several values for one entry are separate records, joined by “and”; a condition that tells them apart may be missing. Identical values can stand only once. ± gives the expanded uncertainty stated by the source.

Assays:
[1] = 101 kPa, Liquid; for viscosity: Capillary tube (Ostwald / Ubbelohde) method; for speed of sound: Sing-around technique in a fixed-path interferometer; for mass density: Vibrating tube method
[2] = xn = mol fraction of the nth substance listed; conditions: 101 kPa, Liquid, x1 = 1; for viscosity: Capillary tube (Ostwald / Ubbelohde) method; for speed of sound: Sing-around technique in a fixed-path interferometer; for mass density: Vibrating tube method

| viscosity ([1]; 298.15 K) | speed of sound ([1]; 298.15 K) | mass density ([1]; 298.15 K) | viscosity ([1]; 303.15 K) | speed of sound ([1]; 303.15 K) | mass density ([1]; 303.15 K) | viscosity ([1]; 308.15 K) | speed of sound ([1]; 308.15 K) | mass density ([1]; 308.15 K) | SMILES | viscosity ([2]; 298.15 K) | speed of sound ([2]; 298.15 K) | mass density ([2]; 298.15 K) | viscosity ([2]; 303.15 K) | speed of sound ([2]; 303.15 K) | mass density ([2]; 303.15 K) | viscosity ([2]; 308.15 K) | speed of sound ([2]; 308.15 K) | mass density ([2]; 308.15 K) |
| --- | --- | --- | --- | --- | --- | --- | --- | --- | --- | --- | --- | --- | --- | --- | --- | --- | --- | --- |
| 28.26 ± 0.31 mPa·s | 1381.9 ± 1.3 m/s | 805.122 ± 0.24 kg/m3 | 22.09 ± 0.26 mPa·s | 1364.1 ± 1.3 m/s | 801.912 ± 0.24 kg/m3 | 17.77 ± 0.21 mPa·s | 1346.5 ± 1.3 m/s | 798.709 ± 0.24 kg/m3 | CC(C)CCCC(C)CCCC(C)CCCCC(C)CCCC(C)CCCC(C)C (stereo not given) [2,6,10,15,19,23-hexamethyltetracosane] | – | – | – | – | – | – | – | – | – |
| 3.041 ± 0.026 mPa·s | 1338.6 ± 1.3 m/s | 770.456 ± 0.24 kg/m3 | 2.706 ± 0.024 mPa·s | 1320 ± 1.3 m/s | 766.981 ± 0.24 kg/m3 | 2.409 ± 0.022 mPa·s | 1301.7 ± 1.3 m/s | 763.52 ± 0.24 kg/m3 | CCCCCCCCCCCCCCCC [hexadecane] | – | – | – | – | – | – | – | – | – |
| – | – | – | – | – | – | – | – | – | CC(C)O [propan-2-ol] + CC(C)CCCC(C)CCCC(C)CCCCC(C)CCCC(C)CCCC(C)C | 2.061 ± 0.018 mPa·s | 1139.3 ± 0.9 m/s | 781.152 ± 0.15 kg/m3 | 1.758 ± 0.015 mPa·s | 1122 ± 0.8 m/s | 776.87 ± 0.15 kg/m3 | 1.573 ± 0.013 mPa·s | 1104.5 ± 0.8 m/s | 772.511 ± 0.15 kg/m3 |
| – | – | – | – | – | – | – | – | – | CC(C)O [propan-2-ol] + CCCCCCCCCCCCCCCC | 2.061 ± 0.018 mPa·s | 1139.3 ± 0.85 m/s | 781.152 ± 0.15 kg/m3 | 1.758 ± 0.015 mPa·s | 1122 ± 0.8 m/s | 776.87 ± 0.15 kg/m3 | 1.573 ± 0.013 mPa·s | 1104.5 ± 0.8 m/s | 772.511 ± 0.15 kg/m3 |

| SMILES | viscosity ([1]; 298.15 K) | speed of sound ([1]; 298.15 K) | mass density ([1]; 298.15 K) | viscosity ([1]; 303.15 K) | speed of sound ([1]; 303.15 K) | mass density ([1]; 303.15 K) | viscosity ([1]; 308.15 K) | speed of sound ([1]; 308.15 K) | mass density ([1]; 308.15 K) | viscosity ([2]; 298.15 K) | speed of sound ([2]; 298.15 K) | mass density ([2]; 298.15 K) | viscosity ([2]; 303.15 K) | speed of sound ([2]; 303.15 K) | mass density ([2]; 303.15 K) | viscosity ([2]; 308.15 K) | speed of sound ([2]; 308.15 K) | mass density ([2]; 308.15 K) |
| --- | --- | --- | --- | --- | --- | --- | --- | --- | --- | --- | --- | --- | --- | --- | --- | --- | --- | --- |
| CC(C)O [propan-2-ol] | 2.061 ± 0.018 mPa·s | 1139.3 ± 0.85 m/s and 1139.3 ± 0.9 m/s | 781.152 ± 0.15 kg/m3 | 1.758 ± 0.015 mPa·s | 1122 ± 0.8 m/s | 776.87 ± 0.15 kg/m3 | 1.573 ± 0.013 mPa·s | 1104.5 ± 0.8 m/s | 772.511 ± 0.15 kg/m3 | – | – | – | – | – | – | – | – | – |
